Assay results reported in ChEMBL document CHEMBL2331080, “Further characterization of a putative serine protease contributing to the γ-secretase cleavage of β-amyloid precursor protein” (Bioorg Med Chem, 2013).
Blank lines part the entries; values can stand above or below the compound they belong to. Calls of active or inactive are those of the source. No cut-off for these calls is given here.

Experiments:
HEK293 [1] = assay: Cytotoxicity against HEK293 cells overexpressing betaAPP K670N/M671L mutant at 10 to 30 uM by LDH release assay; format: cell-based; details: human, hek293, 30 µM
[2] = biological target: T1, Gamma-secretase (Homo sapiens) (UniProt Q96BI3+Q9NZ42+Q8WW43+P49768+Q92542+P49810); assay: Inhibition of gamma-secretase-mediated betaAPP K670N/M671L mutant cleavage in HEK293 cells assessed as inhibition of amyloid beta40/42 production at 10 to 30 uM after 8 hrs by chemiluminescence assay relative to control; format: cell-based
[3] = biological target: T1, Gamma-secretase (Homo sapiens); assay: Inhibition of gamma-secretase-mediated betaAPP K670N/M671L mutant cleavage in HEK293 cells assessed as inhibition of amyloid beta40/42 production at 60 uM after 8 hrs by chemiluminescence assay relative to control; format: cell-based
[4] = Half life of the compound in buffer; format: physicochemical
HEK293 [5] = assay: Cytotoxicity against HEK293 cells overexpressing betaAPP K670N/M671L mutant at 10 uM by LDH release assay; format: cell-based; details: human, hek293, 10 µM
HEK293 [6] = assay: Cytotoxicity against HEK293 cells overexpressing betaAPP K670N/M671L mutant at 60 uM by LDH release assay; format: cell-based; details: human, hek293, 60 µM
Gamma-secretase = assay: Inhibition of gamma-secretase-mediated betaAPP K670N/M671L mutant cleavage in HEK293 cells assessed as inhibition of amyloid beta40/42 production after 8 hrs by chemiluminescence assay; format: cell-based, Homo sapiens
[7] = biological target: T1, Gamma-secretase (Homo sapiens); assay: Modulation of gamma-secretase-mediated betaAPP K670N/M671L mutant cleavage in HEK293 cells assessed as inhibition of amyloid beta40/42 production at 10 to 30 uM after 8 hrs by chemiluminescence assay; format: cell-based
[8] = biological target: T1, Gamma-secretase (Homo sapiens); assay: Inhibition of presenilin-dependent gamma secretase complex in HEK293 solubilized membranes using Flag-C100 as substrate assessed as inhibition of amyloid beta40/42 production at 60 uM after 16 hrs by Western blotting analysis; format: cell membranes
[9] = biological target: T1, Gamma-secretase (Homo sapiens); assay: Modulation of gamma-secretase-mediated betaAPP K670N/M671L mutant cleavage in HEK293 cells assessed as inhibition of amyloid beta40/42 production at 60 uM after 8 hrs by chemiluminescence assay; format: cell-based
[10] = biological target: T2, Proteasome Macropain subunit MB1 (Homo sapiens, UniProt P28074); assay: Inhibition of chymotrypsin-like activity of Proteasome subunit beta 5 (unknown origin) assessed as inhibition of beta-amyloid production by cell-based assay
T2 sequence (P28074 whole entry): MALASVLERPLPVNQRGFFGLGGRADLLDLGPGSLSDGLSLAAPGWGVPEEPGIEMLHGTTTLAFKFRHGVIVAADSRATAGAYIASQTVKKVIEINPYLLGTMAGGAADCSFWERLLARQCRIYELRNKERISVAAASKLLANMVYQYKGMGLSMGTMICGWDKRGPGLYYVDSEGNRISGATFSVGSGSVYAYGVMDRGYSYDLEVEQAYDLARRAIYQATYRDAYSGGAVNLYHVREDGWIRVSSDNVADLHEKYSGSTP

[11] = Half life of the compound in hepes buffer; format: physicochemical

SMILES: CCCCC(CC)CNc1ccc2c(Cl)c(OC)oc(=O)c2c1 (centres undefined)
Activity (HEK293 [1]): Toxic
inhibition [2]: > 50%

SMILES: COCCOc1cc2ccc([N+](=O)[O-])cc2c(=O)o1
inhibition [3]: > 50%

SMILES: CCC(C)Oc1oc(=O)c2cc([N+](=O)[O-])ccc2c1Cl (centres undefined)
half-life [4]: < 0.333 h
inhibition [3]: inactive

SMILES: CCC(C)Oc1oc(=O)c2cc(N)ccc2c1Cl (centres undefined)
Activity (HEK293 [5]): Non-toxic
Activity (HEK293 [6]): Toxic

SMILES: CCCCOc1oc(=O)c2cc([N+](=O)[O-])ccc2c1Cl
half-life [4]: < 0.333 h
inhibition [3]: inactive

SMILES: CCNc1ccc2c(Cl)c(OC)oc(=O)c2c1
IC50 (Gamma-secretase): 10 µM

SMILES: COc1oc(=O)c2cc(NCC(C)(C)C)ccc2c1Cl
Activity (HEK293 [6]): Toxic

SMILES: COc1oc(=O)c2cc(NC(=O)OCC(Cl)(Cl)Cl)ccc2c1Cl
inhibition [3]: inactive

SMILES: COc1oc(=O)c2cc(NCC3CCCCC3)ccc2c1Cl
Activity (HEK293 [1]): Toxic
inhibition [2]: > 50%

SMILES: COc1oc(=O)c2cc(NC(=O)OC(C)(C)C)ccc2c1Cl
inhibition [3]: inactive

SMILES: COCCOc1cc2ccc(N)cc2c(=O)o1
inhibition [3]: inactive

SMILES: CCCCCCCCCNc1ccc2c(Cl)c(OC)oc(=O)c2c1
Activity (HEK293 [1]): Non-toxic
inhibition [2]: > 50%
inhibition [9]: Active

SMILES: CCCCCCNc1ccc2c(Cl)c(OC)oc(=O)c2c1
inhibition [3]: > 50%
Activity (HEK293 [6]): Non-toxic

SMILES: O=c1oc(OCCBr)cc2ccc([N+](=O)[O-])cc12
inhibition [3]: > 50%

SMILES: CCCCOc1oc(=O)c2cc(N)ccc2c1Cl
Activity (HEK293 [5]): Non-toxic
Activity (HEK293 [6]): Toxic

SMILES: Nc1ccc2cc(OCCBr)oc(=O)c2c1
inhibition [3]: inactive

SMILES: CCCCCCCC(=O)Nc1ccc2c(Cl)c(OC)oc(=O)c2c1
inhibition [3]: inactive

SMILES: COc1oc(=O)c2cc(NC(=O)C(F)(F)C(F)(F)F)ccc2c1Cl
inhibition [3]: inactive

SMILES: CCOc1oc(=O)c2cc([N+](=O)[O-])ccc2c1Cl
half-life [4]: < 0.333 h
inhibition [3]: inactive

SMILES: COc1ccc(CNc2ccc3c(Cl)c(OC)oc(=O)c3c2)cc1
inhibition [3]: inactive
Activity (HEK293 [6]): Non-toxic

SMILES: COc1oc(=O)c2cc(Nc3cccc([N+](=O)[O-])c3)ccc2c1Cl
inhibition [3]: inactive
Activity (HEK293 [6]): Non-toxic

SMILES: COc1cc2ccc([N+](=O)[O-])cc2c(=O)o1
inhibition [9]: Active

SMILES: CCOC(=O)Nc1ccc2c(Cl)c(OC)oc(=O)c2c1
inhibition [3]: inactive

SMILES: COc1cc2ccc(N)cc2c(=O)o1
inhibition [3]: inactive

SMILES: COc1oc(=O)c2cc(N)ccc2c1Cl
half-life [11]: 3.5 h

SMILES: C=CCOC(=O)Nc1ccc2c(Cl)c(OC)oc(=O)c2c1
inhibition [3]: inactive

SMILES: COc1oc(=O)c2cc(Nc3ccccc3)ccc2c1Cl
Activity (HEK293 [6]): Toxic

SMILES: CCOc1oc(=O)c2cc(N)ccc2c1Cl
inhibition [3]: > 50%
half-life [11]: 3.5 h

Further lines, with some results ahead:

inhibition [3]: inactive
SMILES: COc1oc(=O)c2cc(NC(C)=O)ccc2c1Cl

inhibition [7]: inactive
inhibition [2]: > 50%
SMILES: COc1oc(=O)c2cc(NCc3ccc(OCc4ccccc4)cc3)ccc2c1Cl
Activity (HEK293 [1]): Non-toxic

inhibition [3]: inactive
inhibition [8]: inactive
SMILES: CC(C)C[C@@H](NC(=O)[C@H](Cc1ccccc1)NC(=O)c1cnccn1)B(O)O

inhibition [3]: > 50%
inhibition [8]: inactive
SMILES: CC(C)C[C@@H](NC(=O)[C@H](Cc1ccccc1)NC(=O)c1ccccc1)B1O[C@H]2C[C@H]3C[C@H](C3(C)C)[C@@]2(C)O1

inhibition [3]: inactive
SMILES: COc1oc(=O)c2cc(NC(=O)OC34CC5CC(CC(C5)C3)C4)ccc2c1Cl

inhibition [3]: > 50%
inhibition [8]: inactive
IC50 (Gamma-secretase): 10 µM
SMILES: CC(C)C[C@H](NC(=O)[C@H](Cc1ccccc1)NC(=O)c1ccccc1)B1O[C@H]2C[C@H]3C[C@H](C3(C)C)[C@@]2(C)O1

inhibition [3]: inactive
inhibition [8]: inactive
SMILES: CC(C)C[C@H](NC(=O)[C@H](Cc1ccccc1)NC(=O)c1cnccn1)B(O)O

inhibition [3]: inactive
SMILES: COc1oc(=O)c2cc(NC(=O)OCc3ccccc3)ccc2c1Cl

inhibition [3]: inactive
SMILES: COc1oc(=O)c2cc(NCCCc3ccccc3)ccc2c1Cl
Activity (HEK293 [6]): Non-toxic

inhibition [3]: inactive
SMILES: COc1oc(=O)c2cc(NC/C=C\c3ccccc3)ccc2c1Cl
Activity (HEK293 [6]): Non-toxic

inhibition [3]: > 50%
inhibition [2]: > 50%
IC50 (Gamma-secretase): 10 µM
SMILES: COc1oc(=O)c2cc(NCc3ccc([N+](=O)[O-])cc3)ccc2c1Cl
Activity (HEK293 [1]): Non-toxic

inhibition [3]: inactive
SMILES: COc1oc(=O)c2cc(NC(=O)OCC3c4ccccc4-c4ccccc43)ccc2c1Cl

inhibition [3]: inactive
inhibition [8]: inactive
SMILES: CC(C)C[C@@H](NC(=O)[C@H](Cc1ccccc1)NC(=O)c1cnccn1)B1O[C@H]2C[C@H]3C[C@H](C3(C)C)[C@@]2(C)O1

inhibition [2]: > 50%
SMILES: COc1oc(=O)c2cc(NCCC(C)(C)C)ccc2c1Cl
Activity (HEK293 [1]): Toxic

inhibition [3]: > 50%
inhibition [8]: inactive
SMILES: CC(C)C[C@@H](NC(=O)[C@H](Cc1ccccc1)NC(=O)c1ccccc1)B(O)O

inhibition [3]: > 50%
SMILES: COc1oc(=O)c2cc(NCCC(C)C)ccc2c1Cl
Activity (HEK293 [6]): Non-toxic

inhibition [7]: inactive
inhibition [2]: > 50%
SMILES: COc1oc(=O)c2cc(NCc3ccccc3[N+](=O)[O-])ccc2c1Cl
Activity (HEK293 [1]): Non-toxic

inhibition [3]: > 50%
inhibition [8]: inactive
IC50 [10]: 0.009 µM
SMILES: CC(C)C[C@H](NC(=O)[C@H](Cc1ccccc1)NC(=O)c1ccccc1)B(O)O

inhibition [9]: Active
SMILES: COc1oc(=O)c2cc(NC(=O)C(C)(C)C)ccc2c1Cl

inhibition [3]: inactive
inhibition [8]: inactive
SMILES: CC(C)C[C@H](NC(=O)[C@H](Cc1ccccc1)NC(=O)c1cnccn1)B1O[C@H]2C[C@H]3C[C@H](C3(C)C)[C@@]2(C)O1

inhibition [3]: inactive
SMILES: COc1oc(=O)c2cc(NC(=O)CCCC(=O)O)ccc2c1Cl

inhibition [3]: inactive
SMILES: COc1oc(=O)c2cc(NCc3ccccc3)ccc2c1Cl
Activity (HEK293 [6]): Non-toxic

inhibition [3]: > 50%
SMILES: COc1oc(=O)c2cc(NCc3cccc4ccccc34)ccc2c1Cl
Activity (HEK293 [6]): Non-toxic

inhibition [3]: > 50%
inhibition [2]: > 50%
IC50 (Gamma-secretase): 10 µM
SMILES: COc1oc(=O)c2cc(NCC(C)C)ccc2c1Cl
Activity (HEK293 [1]): Non-toxic

inhibition [7]: inactive
inhibition [2]: > 50%
SMILES: COc1oc(=O)c2cc(NCc3ccc4ccccc4c3)ccc2c1Cl
Activity (HEK293 [1]): Non-toxic
